{"source": "ChEMBL document CHEMBL5465560", "about": "“Selectivity Literature for EUbOPEN Chemogenomic Library” (2024)", "key": {"[1]": {"target": "Tyrosine-protein kinase receptor UFO (Homo sapiens) (UniProt P30530)", "sequence (P30530 whole entry)": "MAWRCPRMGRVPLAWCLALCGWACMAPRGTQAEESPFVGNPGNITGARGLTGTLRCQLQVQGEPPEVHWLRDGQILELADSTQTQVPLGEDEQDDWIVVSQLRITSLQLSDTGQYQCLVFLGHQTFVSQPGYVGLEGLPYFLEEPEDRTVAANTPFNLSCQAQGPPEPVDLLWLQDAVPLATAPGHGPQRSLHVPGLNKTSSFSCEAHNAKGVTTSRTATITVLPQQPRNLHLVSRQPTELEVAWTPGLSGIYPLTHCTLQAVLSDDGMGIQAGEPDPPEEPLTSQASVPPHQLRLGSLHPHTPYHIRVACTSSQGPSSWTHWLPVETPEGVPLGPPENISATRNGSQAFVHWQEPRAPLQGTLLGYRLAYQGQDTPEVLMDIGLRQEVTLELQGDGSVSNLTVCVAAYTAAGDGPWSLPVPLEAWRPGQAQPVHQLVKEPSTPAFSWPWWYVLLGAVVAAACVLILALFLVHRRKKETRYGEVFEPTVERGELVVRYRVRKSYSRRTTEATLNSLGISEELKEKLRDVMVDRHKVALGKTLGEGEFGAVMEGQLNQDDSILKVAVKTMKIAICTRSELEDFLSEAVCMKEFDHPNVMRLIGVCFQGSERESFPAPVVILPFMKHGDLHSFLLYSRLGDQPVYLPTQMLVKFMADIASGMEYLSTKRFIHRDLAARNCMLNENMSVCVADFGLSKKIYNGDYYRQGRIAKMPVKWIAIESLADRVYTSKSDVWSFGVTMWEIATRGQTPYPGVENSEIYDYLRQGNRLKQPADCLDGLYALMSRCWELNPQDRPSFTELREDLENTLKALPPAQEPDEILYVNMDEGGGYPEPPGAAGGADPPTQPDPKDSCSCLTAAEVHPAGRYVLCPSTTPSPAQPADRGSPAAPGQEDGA", "assay": "Selectivity interaction (Rxn Biology Kinase assay) EUB0001632a AXL", "details": "at 10 µM"}, "[2]": {"target": "Serine/threonine-protein kinase N1 (Homo sapiens, UniProt Q16512)", "sequence (Q16512 2-942 limits assumed)": "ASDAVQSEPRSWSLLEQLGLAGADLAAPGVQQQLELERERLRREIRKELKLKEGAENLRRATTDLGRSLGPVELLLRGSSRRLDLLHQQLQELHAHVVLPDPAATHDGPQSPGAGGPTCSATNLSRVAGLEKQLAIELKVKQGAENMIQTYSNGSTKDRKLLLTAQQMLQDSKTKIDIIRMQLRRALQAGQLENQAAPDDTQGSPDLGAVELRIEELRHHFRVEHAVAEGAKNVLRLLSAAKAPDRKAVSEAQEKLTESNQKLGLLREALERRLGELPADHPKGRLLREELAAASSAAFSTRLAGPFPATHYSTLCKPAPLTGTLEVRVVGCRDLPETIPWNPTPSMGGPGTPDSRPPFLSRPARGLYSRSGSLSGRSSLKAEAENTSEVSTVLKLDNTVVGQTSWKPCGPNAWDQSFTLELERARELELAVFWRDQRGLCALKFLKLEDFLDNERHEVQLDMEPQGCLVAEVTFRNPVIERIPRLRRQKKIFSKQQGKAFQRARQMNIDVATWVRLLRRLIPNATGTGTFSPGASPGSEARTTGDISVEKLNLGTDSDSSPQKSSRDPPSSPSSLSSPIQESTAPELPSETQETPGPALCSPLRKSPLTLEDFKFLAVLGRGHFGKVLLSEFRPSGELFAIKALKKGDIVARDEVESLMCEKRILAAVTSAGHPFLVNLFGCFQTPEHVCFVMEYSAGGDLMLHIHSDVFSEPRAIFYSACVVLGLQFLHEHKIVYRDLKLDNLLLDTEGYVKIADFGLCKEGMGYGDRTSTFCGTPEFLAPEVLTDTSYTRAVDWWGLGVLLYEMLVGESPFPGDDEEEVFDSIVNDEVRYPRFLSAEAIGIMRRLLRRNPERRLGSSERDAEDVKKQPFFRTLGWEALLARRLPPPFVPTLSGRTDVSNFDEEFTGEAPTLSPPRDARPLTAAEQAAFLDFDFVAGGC", "details": "at 10 µM"}, "[3]": {"target": "Macrophage colony-stimulating factor 1 receptor (Homo sapiens) (UniProt P07333)", "sequence (P07333 whole entry)": "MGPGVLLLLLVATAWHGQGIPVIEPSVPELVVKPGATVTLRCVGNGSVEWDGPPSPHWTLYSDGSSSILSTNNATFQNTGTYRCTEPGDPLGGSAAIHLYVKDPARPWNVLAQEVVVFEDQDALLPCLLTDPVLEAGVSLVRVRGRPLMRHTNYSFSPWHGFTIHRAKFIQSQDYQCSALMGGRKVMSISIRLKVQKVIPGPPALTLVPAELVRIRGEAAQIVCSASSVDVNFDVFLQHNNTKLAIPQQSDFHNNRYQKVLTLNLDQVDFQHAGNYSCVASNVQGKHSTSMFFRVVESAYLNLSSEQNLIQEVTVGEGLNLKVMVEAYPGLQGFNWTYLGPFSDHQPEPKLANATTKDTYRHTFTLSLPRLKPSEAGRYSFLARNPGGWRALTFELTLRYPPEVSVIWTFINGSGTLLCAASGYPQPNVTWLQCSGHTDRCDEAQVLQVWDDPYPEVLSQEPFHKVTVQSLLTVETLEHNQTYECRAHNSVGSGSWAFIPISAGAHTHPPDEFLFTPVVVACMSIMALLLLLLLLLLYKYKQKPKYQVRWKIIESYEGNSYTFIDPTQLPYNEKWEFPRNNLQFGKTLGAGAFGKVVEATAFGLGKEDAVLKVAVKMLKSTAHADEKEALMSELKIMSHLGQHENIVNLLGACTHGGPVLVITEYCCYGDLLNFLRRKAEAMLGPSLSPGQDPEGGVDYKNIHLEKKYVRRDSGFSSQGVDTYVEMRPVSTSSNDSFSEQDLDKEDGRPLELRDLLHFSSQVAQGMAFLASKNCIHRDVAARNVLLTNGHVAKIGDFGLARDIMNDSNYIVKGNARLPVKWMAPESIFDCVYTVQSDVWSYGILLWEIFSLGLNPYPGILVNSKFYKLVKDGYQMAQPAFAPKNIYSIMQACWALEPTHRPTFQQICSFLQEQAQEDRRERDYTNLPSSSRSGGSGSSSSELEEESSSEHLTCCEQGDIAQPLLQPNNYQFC", "assay": "Selectivity interaction (KinomeScan (DiscoverX)) EUB0001049a CSF1R", "details": "at 1 µM"}, "[4]": {"target": "Serine/threonine-protein kinase MARK1 (Homo sapiens) (UniProt Q9P0L2)", "sequence (Q9P0L2 whole entry, looked up)": "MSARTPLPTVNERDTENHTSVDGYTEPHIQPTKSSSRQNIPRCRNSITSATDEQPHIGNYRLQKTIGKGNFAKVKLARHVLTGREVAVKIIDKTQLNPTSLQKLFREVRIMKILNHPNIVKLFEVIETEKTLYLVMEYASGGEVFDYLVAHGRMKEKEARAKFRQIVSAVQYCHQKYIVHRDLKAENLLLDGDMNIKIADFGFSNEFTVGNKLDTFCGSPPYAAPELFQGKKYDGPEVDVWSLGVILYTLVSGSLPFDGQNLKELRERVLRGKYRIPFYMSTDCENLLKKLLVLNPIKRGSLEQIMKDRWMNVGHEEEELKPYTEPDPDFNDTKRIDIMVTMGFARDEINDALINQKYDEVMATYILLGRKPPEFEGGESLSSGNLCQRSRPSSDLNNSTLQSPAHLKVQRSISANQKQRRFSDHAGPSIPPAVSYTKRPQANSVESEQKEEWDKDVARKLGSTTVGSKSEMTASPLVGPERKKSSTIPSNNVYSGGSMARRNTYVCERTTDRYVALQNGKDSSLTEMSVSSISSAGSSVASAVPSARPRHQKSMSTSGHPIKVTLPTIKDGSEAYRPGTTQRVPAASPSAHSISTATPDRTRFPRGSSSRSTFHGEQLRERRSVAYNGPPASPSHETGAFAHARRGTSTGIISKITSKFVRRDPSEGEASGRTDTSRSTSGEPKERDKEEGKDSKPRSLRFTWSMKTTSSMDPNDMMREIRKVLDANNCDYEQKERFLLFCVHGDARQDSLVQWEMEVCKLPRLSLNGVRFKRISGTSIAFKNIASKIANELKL", "assay": "Selectivity interaction (Kinase panel (literature)) EUB0001199aCl MARK1", "details": "at 1 µM"}, "[5]": {"target": "G protein-coupled receptor kinase 4 (Homo sapiens) (UniProt P32298)", "sequence (P32298 whole entry, looked up)": "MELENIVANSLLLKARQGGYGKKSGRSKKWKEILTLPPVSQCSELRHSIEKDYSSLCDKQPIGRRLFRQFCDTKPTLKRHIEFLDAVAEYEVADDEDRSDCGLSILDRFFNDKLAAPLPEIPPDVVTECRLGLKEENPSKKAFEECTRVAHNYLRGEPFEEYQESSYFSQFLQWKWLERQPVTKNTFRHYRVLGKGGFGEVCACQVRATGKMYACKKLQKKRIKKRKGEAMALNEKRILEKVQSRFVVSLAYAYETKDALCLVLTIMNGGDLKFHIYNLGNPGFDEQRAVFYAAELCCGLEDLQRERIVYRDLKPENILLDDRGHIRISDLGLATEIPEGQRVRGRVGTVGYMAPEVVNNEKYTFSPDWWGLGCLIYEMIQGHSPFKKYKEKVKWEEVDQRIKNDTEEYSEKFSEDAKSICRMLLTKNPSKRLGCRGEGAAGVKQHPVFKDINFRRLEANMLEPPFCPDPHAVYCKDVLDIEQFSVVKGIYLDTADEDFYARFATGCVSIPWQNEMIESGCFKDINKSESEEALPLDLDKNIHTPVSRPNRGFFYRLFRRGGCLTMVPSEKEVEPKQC", "assay": "Selectivity interaction (KinomeScan (DiscoverX)) EUB0000607a GRK4", "details": "at 10 µM"}, "[6]": {"target": "T1, Rhodopsin kinase GRK7 (Homo sapiens) (UniProt Q8WTQ7)", "T1 sequence (whole entry)": "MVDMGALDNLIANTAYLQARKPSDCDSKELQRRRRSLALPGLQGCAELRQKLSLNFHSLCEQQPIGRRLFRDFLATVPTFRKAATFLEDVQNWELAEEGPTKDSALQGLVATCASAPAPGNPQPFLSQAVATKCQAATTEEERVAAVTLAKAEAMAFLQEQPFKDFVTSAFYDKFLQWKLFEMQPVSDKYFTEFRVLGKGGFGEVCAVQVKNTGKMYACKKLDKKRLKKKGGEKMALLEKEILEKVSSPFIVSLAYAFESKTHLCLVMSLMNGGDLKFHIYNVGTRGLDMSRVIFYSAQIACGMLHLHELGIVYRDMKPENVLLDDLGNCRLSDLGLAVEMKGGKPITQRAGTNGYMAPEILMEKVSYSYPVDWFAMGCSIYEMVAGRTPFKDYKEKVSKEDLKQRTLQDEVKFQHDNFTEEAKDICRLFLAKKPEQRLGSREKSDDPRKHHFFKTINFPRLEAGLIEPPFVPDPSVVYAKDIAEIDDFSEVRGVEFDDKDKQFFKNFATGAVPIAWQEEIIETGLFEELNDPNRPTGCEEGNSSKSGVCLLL", "assay": "Selectivity interaction (SelectScreen profiling (Invitrogen)) EUB0000607a GRK7", "details": "at 2 µM"}, "[7]": {"target": "Calcium/calmodulin-dependent protein kinase type II subunit alpha (Homo sapiens, UniProt Q9UQM7)", "sequence (Q9UQM7 whole entry)": "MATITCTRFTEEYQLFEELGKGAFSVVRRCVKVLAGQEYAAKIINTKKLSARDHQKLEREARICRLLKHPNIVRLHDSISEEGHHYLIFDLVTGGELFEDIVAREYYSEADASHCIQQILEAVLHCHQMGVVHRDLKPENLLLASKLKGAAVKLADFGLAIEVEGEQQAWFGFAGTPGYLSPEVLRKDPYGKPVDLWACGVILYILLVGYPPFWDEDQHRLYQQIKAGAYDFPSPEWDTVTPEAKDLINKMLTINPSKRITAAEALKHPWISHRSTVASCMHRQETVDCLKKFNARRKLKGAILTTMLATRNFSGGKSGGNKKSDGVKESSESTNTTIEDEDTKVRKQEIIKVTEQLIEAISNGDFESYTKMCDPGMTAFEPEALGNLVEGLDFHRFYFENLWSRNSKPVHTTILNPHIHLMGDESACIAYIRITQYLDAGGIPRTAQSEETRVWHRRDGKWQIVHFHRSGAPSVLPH", "assay": "Selectivity interaction (KinomeScan (DiscoverX)) EUB0000655a CAMK2A", "details": "at 10 µM"}, "[8]": {"target": "Receptor-type tyrosine-protein kinase FLT3 (Homo sapiens) (UniProt P36888)", "assay": "(§1) Selectivity interaction (Ambit KINOMEscan and KiNATiv profiling in Jurkat cells) EUB0000090b FLT3", "assay_type": "cell-based", "details": "at 1 µM"}, "[9]": {"system": "T2, Receptor-type tyrosine-protein kinase FLT3 (Homo sapiens), P36888 [D835H]", "T2 sequence (whole entry)": "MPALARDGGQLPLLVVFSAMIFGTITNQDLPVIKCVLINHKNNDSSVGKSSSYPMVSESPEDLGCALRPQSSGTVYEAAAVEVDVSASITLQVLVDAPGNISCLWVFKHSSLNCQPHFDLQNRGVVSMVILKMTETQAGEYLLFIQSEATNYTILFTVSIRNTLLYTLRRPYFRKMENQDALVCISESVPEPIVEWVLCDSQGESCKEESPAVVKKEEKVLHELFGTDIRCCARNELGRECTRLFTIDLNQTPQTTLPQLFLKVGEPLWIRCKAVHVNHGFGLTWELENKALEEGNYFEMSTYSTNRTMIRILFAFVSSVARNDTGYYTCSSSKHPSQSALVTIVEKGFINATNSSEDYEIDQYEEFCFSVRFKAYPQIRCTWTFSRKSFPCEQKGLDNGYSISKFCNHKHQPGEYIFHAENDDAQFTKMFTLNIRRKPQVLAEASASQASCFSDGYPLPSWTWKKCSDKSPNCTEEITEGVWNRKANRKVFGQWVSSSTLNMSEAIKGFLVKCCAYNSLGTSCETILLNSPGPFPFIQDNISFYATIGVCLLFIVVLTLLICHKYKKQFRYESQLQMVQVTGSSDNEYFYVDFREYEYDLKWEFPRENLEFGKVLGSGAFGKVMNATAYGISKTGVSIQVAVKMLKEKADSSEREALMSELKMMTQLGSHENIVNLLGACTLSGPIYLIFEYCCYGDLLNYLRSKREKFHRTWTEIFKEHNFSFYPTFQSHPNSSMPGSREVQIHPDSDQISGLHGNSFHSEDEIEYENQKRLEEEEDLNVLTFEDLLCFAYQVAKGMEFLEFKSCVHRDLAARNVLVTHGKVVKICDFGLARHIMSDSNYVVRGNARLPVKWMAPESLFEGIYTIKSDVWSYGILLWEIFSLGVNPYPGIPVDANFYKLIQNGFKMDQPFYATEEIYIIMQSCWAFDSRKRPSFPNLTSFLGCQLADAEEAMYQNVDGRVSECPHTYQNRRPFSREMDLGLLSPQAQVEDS", "assay": "as §1", "assay_type": "cell-based", "details": "at 1 µM"}, "[10]": {"system": "T3, Receptor-type tyrosine-protein kinase FLT3 (Homo sapiens), P36888 [R834Q]", "T3 sequence (whole entry)": "T2 sequence (whole entry) with R834Q, H835D", "assay": "as §1", "assay_type": "cell-based", "details": "at 1 µM"}}, "note": "Where a chain is given by its changes, count along the chain named."}
{"smiles": "Cn1cc(-n2cnc3c(NCc4nc5cc(Cl)c(Cl)cc5[nH]4)nc(N4CCOCC4)nc32)cn1", "values": [{"measurement": "% of inhibition", "setting": "[1]", "value": 4.15, "unit": "%"}]}
{"smiles": "Cc1cc([C@@H](C)Nc2ccccc2C(=O)O)c2nc(N3CCOCC3)cc(=O)n2c1", "note": "[AZD-6482]", "values": [{"measurement": "% of control", "setting": "[2]", "value": 100, "unit": "%"}]}
{"smiles": "COc1cc(Nc2nc(C)cc(-c3cnn4nc(OC)ccc34)n2)cc(C(F)(F)F)c1", "values": [{"measurement": "% of control", "setting": "[3]", "value": 100, "unit": "%"}]}
{"smiles": "CN1Cc2nccc(-c3cn(C)nc3-c3ccc(F)cc3)c2C1=O", "values": [{"measurement": "% of inhibition", "setting": "[4]", "value": 8, "unit": "%"}]}
{"smiles": "CNC(=O)Nc1ccc(-c2nc(N3CC4CCC(C3)O4)c3cnn(C4CCC5(CC4)OCCO5)c3n2)cc1", "values": [{"measurement": "% of control", "setting": "[5]", "value": 100, "unit": "%"}, {"measurement": "% of inhibition", "setting": "[6]", "value": 7, "unit": "%"}]}
{"smiles": "CN(C)CCOc1ccc(-c2nc(-c3ccncc3)c(-c3ccc4c(c3)CC/C4=N\\O)[nH]2)cc1", "values": [{"measurement": "% of control", "setting": "[7]", "value": 88, "unit": "%"}]}
{"smiles": "CN(C)C/C=C/C(=O)Nc1ccc(C(=O)N2CCCC(Nc3ncc(Cl)c(-c4c[nH]c5ccccc45)n3)C2)cc1", "note": "(stereo not given)", "values": [{"measurement": "% of control", "setting": "[8]", "value": 94, "unit": "%"}, {"measurement": "% of control", "setting": "[9]", "value": 64, "unit": "%"}, {"measurement": "% of control", "setting": "[10]", "value": 92, "unit": "%"}]}
